Measurements: US6713048B2, “Δ9 tetrahydrocannabinol (Δ9 THC) solution metered dose inhalers and methods of use” (Virginia Commonwealth University, priority 1998, dated 2004)

Legend:
Glaucoma = details: oral 5, 10, 15 and 20 mg THC; 6 glaucoma patients; cited from earlier work
intra ocular pressure = details: intravenous THC 0.022 or 0.044 mg/kg; ten subjects with normal intra ocular pressure; cited from earlier work
[1] = Blood levels of Δ^9-THC by LC-MS; details: mouse, whole blood
Procedure: Whether inhalation exposure to Δ^9 THC aerosol would elicit pharmacological effects indicative of cannabinoid activity in mice (Compton, D. R., Rice, K. C., De Costa, B. R., Rzdan, R. K., Melvin, L. S., Johnson, M. R., Martin, B. R., Cannabinoid structure-activity relationships: Correlation of receptor binding and in vivo activities, J Pharmacol Exp Ther, 265:218-226 (1993); Little et al., 1988) was determined.
Blood and brain levels of Δ^9-THC were determined as follows. Extraction and LC-MS quantification of Δ^9-THC from whole blood and brain tissue were modified from Lichtman, A. H., Poklis, J. L., Wilson, D. M., Martin, B. R., The pharmacological activity of inhalation exposure to marijuana smoke in mice, Drug Alc Depend, 63:107-116 (2001). Particularly, THC and 2H^3-THC were extracted from brain material which contains a high degree of lipids. Acetonitrile was added to the pelletized solids and stored in a freezer overnight to separate the acetonitrile layer (which contained THC/2H^3-THC) from the aqueous layers. The following day the acetonitrile layer was removed. In the Lichtman et al., study, 2 ml of 9:1 NaOH was added and the sample was vortexed. Four ml of 9:1 hexane:ethyl acetate was added and the sample was vortexed and spun […] for 30 minutes. The vials were then centrifuged at 4,000 rpm […] for 10 minutes. The organic layer was removed and evaporated. Upon drying, a derivatizing agent was added and the sample was vortexed, and each sample analyzed by GC/MS. In the present experimentation, the acetonitrile was instead evaporated to dryness under nitrogen. The material was then resolubilized in 0.1 ml methanol. LC-MS identification was used to quantify Δ^9-THC/2H^3-THC in blood and brain matrices. […] Fifty ng of ^2H3-THC (Radian Corporation, Austin, Tex.) was added to the blood sample, brain homogenate, and calibrators as an internal standard. Following an equilibration period, 2.5 ml of cold acetonitrile (HPLC grade, Fisher Scientific, Raleigh, N.C.) was added drop-wise while vortexing. The samples were then centrifuged (Precision Vari-Hi-Speed Centricone, Precision Scientific Co., Chicago, Ill.) at 2500 rpm for 15 minutes to pelletize solids, then stored in the freezer (−20° C.) overnight, allowing the acetonitrile layer to separate from the aqueous layers. The acetonitrile layer was then removed and evaporated to dryness under nitrogen. The Δ^9-THC/^2H3-THC was then resolubilized in 0.1 ml methanol (HPLC grade, Fisher Scientific).
LC-MS identification was used for quantification of Δ^9-THC and ^2H3-THC in blood and brain matrices using an 85:15 methanol: 1% glacial acetic acid (0.1% formic acid) mobile phase. A guard column was used inline with the standard reverse phase C18 column. The mass spectrometer was run in APCI+mode. Ions analyzed in single ion monitoring mode were 315 for Δ^9-THC and 318 for ^2H3-THC. A calibration curve was constructed for each assay based on linear regression using the peak-area ratios of Δ^9-THC to ^2H3-THC of the extracted calibration samples.

[2] = test system: Spasticity related to multiple sclerosis; details: 13 patients, cited from earlier work
[3] = test system: Spasticity related to multiple sclerosis; details: oral 10 or 15 mg THC, rectal 5 or 10 mg THC; 2 patients; cited from earlier work
[4] = test system: Nausea and emesis due to Cancer chemotherapy; details: oral 10 mg/m^2 THC; 84 patients; cited from earlier work
[5] = Apparent solubility of Δ^9 THC in ethanol/HFA propellant blends; type: physicochemical
Text: When the propellant is a hydrofluoroalkane, it has been discovered that the propellant may be used with or without a solvent such as ethanol. Higher percentages of solvent generally allow higher levels of dissolution of Δ^9 THC. However, higher percentages of solvent also cause droplet size to increase. […] Within this range of percentages, pharmaceutically useful concentrations of Δ^9 THC can be achieved and droplet size is still small enough (<5.8 um) to provide excellent aerosol delivery of the drug. While these ratios reflect preferred embodiments of the invention, it will be recognized by those of skill in the art that the exact ratio of propellant to solvent (e.g. ethanol) may vary according to the desired final concentration of Δ^9 THC and droplet size. Any ratio of propellant to solvent that results in appropriate sized droplets and adequate dissolution of the Δ^9 THC may be used in the practice of this invention, and this will generally be in the range of from 100 to 80% propellant and 0 to 20% solvent. It is expected that a wide variety of solvents, such as ethanol, propanol, propylene glycol, glycerol, polyethylene glycol, etc. may be used in the preparation of formulations contemplated by this invention.

[6] = test system: Nausea and emesis due to Cancer chemotherapy; details: oral 10 mg/m^2 THC; refractory to other antiemetics; cited from earlier work
[7] = test system: Nausea and emesis due to Cancer chemotherapy; details: oral 15 mg THC, 116 patients, cited from earlier work
[8] = test system: AIDS-associated anorexia and cachexia; details: oral 2.5 mg THC twice daily; 139 patients; 42 days; cited from earlier work
[9] = test system: Nausea and emesis due to Cancer chemotherapy; details: oral 10 mg/m^2 THC every 3 hours, 5 doses, 15 patients, cited from earlier work
[10] = 10 mg prochloperzine or placebo

CCCCCc1cc(O)c2c(c1)OC(C)(C)[C@@H]1CCC(C)=C[C@@H]21 (relative stereo) [Δ^9 THC, (6aR-trans)-6a,7,8,10a-tetrahydro-6,6,9-trimethyl-3-pentyl-6H-dibenzo[b,d]-pyran-1-ol]
appetite (Glaucoma): appetite stimulation,
mood (Glaucoma): elevated mood
pain (Glaucoma): Pain relief
mean decrease of intra ocular pressure (intra ocular pressure): presser by mean of 37%
concentration at 20 min ([1]; inhaled, 20 actuations): 409 ± 86 ng/g
concentration at 20 min ([1]; inhaled, 40 actuations): 788 ± 273 ng/g
concentration at 20 min ([1]; inhaled, 60 actuations): 1130 ± 240 ng/g
concentration at 20 min ([1]; iv, 1 mg/kg): 102 ± 6 ng/g
concentration at 20 min ([1]; iv, 3 mg/kg): 365 ± 39 ng/g
concentration at 20 min ([1]; iv, 10 mg/kg): 1320 ± 38 ng/g
objective measurements of spasticity ([2]; oral 2.5 to 15 mg THC once or twice daily): no significant improvement
subjective improvement in spasticity ([2]; oral, at 7.5 mg THC and higher, once or twice daily): Significant subjective
passive mobility and walking ability [3]: Improvement in passive
antiemetic efficacy compared with prochloperazine [4]: THC more effective than
Apparent Solubility Mean (±SD) ([5]; 5% Ethanol/95% HFA 134a): 1.585% w/w
Apparent Solubility Mean (±SD) ([5]; 5% Ethanol/95% HFA 227): 1.339% w/w
Apparent Solubility Mean (±SD) ([5]; 10% Ethanol/90% HFA 227): 3.240% w/w
Apparent Solubility Mean (±SD) ([5]; 10% Ethanol/90% HPA 134a): 3.511 % w/w
Apparent Solubility Mean (±SD) ([5]; 15% Ethanol/85% HFA 134a): 4.883% w/w
Apparent Solubility Mean (±SD) ([5]; 15% Ethanol/85% HFA 227): 5.94 % w/w
Apparent Solubility Mean (±SD) ([5]; 100% HFA 134a, n = 5): 0.224% w/w
Apparent Solubility Mean (±SD) ([5]; 100% HFA 227): 0.147 % w/w
courses resulting in a reduction of vomiting (of 20 courses of THC) [6]: resulted in no vomiting, 9
courses resulting in no decrease in vomiting (of 20 courses of THC) [6]: vomiting, 3 resulted in no
courses resulting in no vomiting (of 20 courses of THC) [6]: In 20 courses of THC, 5
antiemetic effect compared with placebo [7, 10]: each greater than placebo;
antiemetic effects, THC vs prochlorperazine [7, 10]: Equal antiemetic effects
CNS side effects compared with prochlorperazine ([7]; 10 mg prochloperzine): considerately more CNS
appetite increase over baseline [8]: Appetite increased 38%
nausea [8]: THC also decreased
weight change between THC and placebo groups [8]: nausea. No significant
patients with a fair response [9]: excellent response, 40%
plasma THC levels (mean + SD) [9]: THC levels 7.1 ± 6.9 (mean ng/ml
side effects [9]: tachycardia, few other side
patients with a reduction in nausea and vomiting ([9]; THC (17 mg) laced cigarettes if vomiting occurred): 93% patients had a
